# Test results from PubChem BioAssay AID1963443 (Molecular Pharmacology Branch, DTP, NCI, 2024).
# Where “and” joins values, the source holds several entries; their conditions need not be identical. Equal entries are not always repeated.
# Test system: MDA-MB-231 complex spheroids, growth inhibition
# Test: Anticancer human tumor MDA-MB-231 cell line growth inhibition [Asc];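 note: spheroids exposed to compounds for 7 days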
# Conditions: for viability, T/C: stronger effect = lower value
# Procedure: Multicellular complex tumor spheroid response to apoptosis pathway targeting inhibitors Alrizomadlin, Pelcitoclax, and Dasminapant in combination with a variety of drugs and investigational agents in selected tumor cell lines
# The MDM2 inhibitor alrizomadlin, the Bcl-2/Bcl-xL inhibitor pelcitoclax, and the IAPs inhibitor dasminapant were evaluated both individually and in combination with standard of care and investigational anticancer small molecules within a complex spheroid model of solid tumors. . Complex spheroids include a stromal component modeled by human endothelial cells (HUVEC) and fibroblasts modeled by human mesenchymal stem cells (MSCs). The concentration ranges selected for each drug and investigational agent were based upon clinically achievable concentrations if the clinical Cmax of the agent was known.
# Compounds. The drugs and investigational agents: alrizomadlin (APG-115; NSC831270), pelcitoclax (APG-1252; NSC835773), dasminapant (APG-1387;NSC834197), TAK-243 (NSC785004), copanlisib (NSC809693), olaparib (NSC753686), talazoparib (NSC767125), cobimetinib (NSC 768068), eltanexor (KPT-8602, NSC 794443), abemaciclib (NSC 768073), sotorasib (NSC818433), adagrasib (NSC 831453), MRTX-1133 (NSC 836407), Iadademestat (ORY1001, NSC 806812), and RMC-4630 (NSC839698), were obtained from the NCI Developmental Therapeutics Program Chemical Repository. The FDA-approved anticancer drug set is available from the Developmental Therapeutics Program at https://dtp.cancer.gov/organization/dscb/obtaining/available plates.htm. […] The stock solutions were prepared in dimethyl sulfoxide (DMSO, Sigma-Aldrich, St. Louis, MO, cat. D2650) at 800-fold the tested concentration and stored at -70 degrees C prior to their use. All drugs and investigational agents were tested over a range starting from a high concentration at or near the clinical Cmax and decreasing in half-log increments. If the clinical Cmax for an agent had not been determined, the highest concentration tested was 10 microM.
# The patient-derived cancer (PDC) cell lines include five colon adenocarcinomas: 186277-243-T-J2-PDC, 616215-338-R-J1-PDC, 439559-082-T-J2-PDC, 463943-066-T-J2-PDC, and 519858-162-T-J1-PDC; three pancreatic carcinomas: 323965-272-R-J2-PDC, 521955-158-R6-J3-PDC, and 521955-158-R2-J5-PDC; two uterine sarcomas: 327498-152-R-J2-PDC and 993429-296-R-J1-PDC; two rhabdomyosarcomas: 755483-174-R-J1-PDC and 772245-204-R-J1-PDC; two soft tissue sarcomas: 126254-015-R-J1-PDC and 494315-158-R-J1-PDC; two malignant fibrous histiocytomas: 317291-083-R-J1-PDC and 596521-263-R-J1-PDC; two breast carcinomas: 171881-019-R-J1-PDC and 885512-296-R-J2-PDC; and one ovarian carcinoma: 6556581-035-R-J-PDC were obtained from the NCI PDMR, (https://pdmr.cancer.gov). The established cell lines HSSY-2 synovial sarcoma (RRID:CVCL 8719), SYO-1 synovial sarcoma (RRID:CVCL_7146), MPNST malignant peripheral neural sheath tumor were obtained from the Sloan Kettering Institute. The following established cell lines were purchased from the American Type Culture Collection (ATCC, Manassas, VA), Sor the received from the NCI repository:, PANC-1 pancreatic carcinoma (CRL-1469, RRID:CVCL_0480), OVCAR-5 ovarian carcinoma (RRID:CVCL_1628), OVCAR-8 ovarian carcinoma (RRID:CVCL_1629), , MCF-7 breast carcinoma (CRL-12584, RRID:CVCL_0031), MDA-MB-231 breast carcinoma (CRL-12532, RRID:CVCL_0062), NCI-H1876 small cell lung carcinoma (CRL-5902, RRID:CVCL_1503), NCI-H510A small cell lung carcinoma (HTB-184, RRID:CVCL_1565), NCI-H1417 (CRL-5869, RRID:CVCL_1469), and NCI-H196 small cell lung carcinoma (CRL-5823, RRID:CVCL_1509). Dr. Peter Houghton (Greehey Children's Cancer Research Institute, University of Texas Health Science Center, San Antonio, TX) provided Rh-18 rhabdomyosarcoma (RRID:CVCL_1659). Pooled donor human umbilical vein endothelial cells (HUVEC, Lonza, cat. CC-2519) and human mesenchymal stem cells (hMSC, Lonza, cat. PT-2501) were purchased from Lonza (Walkersville, MD).
# Cell Culture. […]
smiles,measurement,setting,value
NC1CCC(NC2CC2c2ccccc2)CC1 (configuration not stated),"viability, T/C",compound 0.000316 µM,102% and 98.5% and 104%
same,"viability, T/C",compound 0.001 µM,108% and 99% and 105%
same,"viability, T/C",compound 0.00316 µM,105% and 98.7% and 107%
same,"viability, T/C",compound 0.01 µM,105% and 98.6% and 101%
same,"viability, T/C",compound 0.0316 µM,103% and 96.8% and 107%
same,"viability, T/C",compound 0.1 µM,104% and 98.3% and 99.8%
same,IC50,curve of compound,> 100 nM
NC(=O)C(=Cn1cnc(-c2cc(C(F)(F)F)cc(C(F)(F)F)c2)n1)c1cncnc1 + CNC(C)C(=O)NC1CN(S(=O)(=O)c2cccc(S(=O)(=O)N3CCC4CCC(C(=O)NC(c5ccccc5)c5ccccc5)N4C(=O)C(NC(=O)C(C)NC)C3)c2)CCC2CCC(C(=O)NC(c3ccccc3)c3ccccc3)N2C1=O,IC50,"curve of first compound, second compound 0.01 µM",< 0.949 nM
same,IC50,"curve of first compound, second compound 0.0316 µM",< 0.949 nM
same,IC50,"curve of first compound, second compound 0.1 µM",< 0.949 nM
same,IC50,"curve of first compound, second compound 0.316 µM",< 0.949 nM
same,IC50,"curve of first compound, second compound 1 µM",< 0.949 nM
same,"viability, T/C","second compound 0.01 µM, first compound 0.000949 µM",3.47%
same,"viability, T/C","second compound 0.01 µM, first compound 0.003 µM",3.32%
same,"viability, T/C","second compound 0.01 µM, first compound 0.00949 µM",2.92%
same,"viability, T/C","second compound 0.01 µM, first compound 0.03 µM",3.34%
same,"viability, T/C","second compound 0.01 µM, first compound 0.0949 µM",3.01%
same,"viability, T/C","second compound 0.01 µM, first compound 0.3 µM",1.3%
same,"viability, T/C","second compound 0.0316 µM, first compound 0.000949 µM",1.67%
same,"viability, T/C","second compound 0.0316 µM, first compound 0.003 µM",1.38%
same,"viability, T/C","second compound 0.0316 µM, first compound 0.00949 µM",1.57%
same,"viability, T/C","second compound 0.0316 µM, first compound 0.03 µM",1.39%
same,"viability, T/C","second compound 0.0316 µM, first compound 0.0949 µM",1.1%
same,"viability, T/C","second compound 0.0316 µM, first compound 0.3 µM",0.42%
same,"viability, T/C","second compound 0.1 µM, first compound 0.000949 µM",1.05%
same,"viability, T/C","second compound 0.1 µM, first compound 0.003 µM",1.72%
same,"viability, T/C","second compound 0.1 µM, first compound 0.00949 µM",1.5%
same,"viability, T/C","second compound 0.1 µM, first compound 0.03 µM",1.76%
same,"viability, T/C","second compound 0.1 µM, first compound 0.0949 µM",0.66%
same,"viability, T/C","second compound 0.1 µM, first compound 0.3 µM",0.29%
same,"viability, T/C","second compound 0.316 µM, first compound 0.000949 µM",1.29%
same,"viability, T/C","second compound 0.316 µM, first compound 0.003 µM",1.22%
same,"viability, T/C","second compound 0.316 µM, first compound 0.00949 µM",1.39%
same,"viability, T/C","second compound 0.316 µM, first compound 0.03 µM",1.21%
same,"viability, T/C","second compound 0.316 µM, first compound 0.0949 µM",0.77%
same,"viability, T/C","second compound 0.316 µM, first compound 0.3 µM",0.57%
same,"viability, T/C","second compound 1 µM, first compound 0.000949 µM",0.82%
same,"viability, T/C","second compound 1 µM, first compound 0.003 µM",1.08%
same,"viability, T/C","second compound 1 µM, first compound 0.00949 µM",1.07%
same,"viability, T/C","second compound 1 µM, first compound 0.03 µM",0.91%
same,"viability, T/C","second compound 1 µM, first compound 0.0949 µM",0.91%
same,"viability, T/C","second compound 1 µM, first compound 0.3 µM",0.37%
